# Measurements: PubChem BioAssay AID1259418 (Broad Institute, 2018)
# Several values for one entry are separate records, joined by “and”; a condition that tells them apart may be missing. Identical values can stand only once. Records with an inconclusive call do not appear. Activity calls are given as the source filed them.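 How the source made its calls: active means fitted half-maximal concentration of signal decrease at or below twice the sample's top tested concentration; inconclusive means flat curve between -70 and -30 percent, or poor fit; inactive means flat within 30 percent, signal rise, or potency above limit.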
# Biological target: T. gondii ME49Luc in IFN-y HeLa, luciferase, 72 h
# Assay: T. gondii growth inhibition with IFN-gamma, dose response, cell-based, ME49Luc, HeLa, luciferase, 72 h (AID 1259418)
row,Compound,AC50
1,Cc1ccc(Cn2c(CN3CCC(C(=O)NCCCN4CCCC4)CC3)cc3ccccc32)cc1,13.4 µM
2,CCN1CCN(Cc2ccc(Nc3nc(-c4ccc(OC)cc4)nc4ccccc34)cc2)CC1,11.3 µM and 12.5 µM
3,Cc1cccc(CNC2=NCCNC23CCN(S(=O)(=O)c2ccc(CC(C)C)cc2)CC3)c1,8.2 µM
4,COc1cccc(S(=O)(=O)N2CCCCN3[C@H](CO)[C@H](c4ccc(C#CCC(C)C)cc4)[C@H]3C2)c1,16.5 µM and 1.89 µM and 10.4 µM
5,Cc1ccc2[nH]c(C(=O)NCc3cccnc3)c(NC(=O)c3ccc(F)cc3)c2c1,27.6 µM
6,CC(=O)N(C)C1(c2ccccc2)CCN(CCC[C@]2(c3ccc(Cl)c(Cl)c3)CCCN(C(=O)c3ccccc3)C2)CC1,12 µM
7,COc1ccc(S(=O)(=O)N(C)C[C@H]2Oc3c(NC(=O)c4nc5ccccc5s4)cccc3C(=O)N([C@@H](C)CO)C[C@H]2C)cc1,21.8 µM
8,Cc1ccc(-c2nc(CN(c3ccccc3)S(=O)(=O)c3cccs3)c(C)o2)cc1,10.8 µM
9,COc1cccc(CNC2=NCCNC23CCN(S(=O)(=O)c2cc(C)c(C)cc2C)CC3)c1,9.29 µM
10,COc1cccc(C(=O)Nc2ccc3c(c2)C(=O)N(C)[C@@H]2CC[C@H](CC(=O)NCc4ccc(F)cc4)O[C@@H]2CO3)c1,9.13 µM
11,O=S(=O)(c1cccs1)N1CCCCN2[C@H](C1)[C@@H](c1ccc(/C=C/c3ccccc3)cc1)[C@@H]2CO,15.3 µM
12,Cc1cccc(NC(=O)c2cc(-c3cnc(N4CCOCC4)nc3)cn2CC2CC2)c1,22.2 µM
13,OC[C@H]1Nc2ccc(-c3cccc(F)c3)cc2[C@@H]2[C@H]1CCN2Cc1ccc(F)cc1,20 µM
14,CC(C)Cc1ccc(S(=O)(=O)N2CCC[C@@H]2C(=O)NCCc2csc(-c3ccccc3)n2)cc1,12.4 µM
15,COC(=O)C[C@H]1CC[C@@H]2[C@H](COc3ccc(NC(=O)Nc4cccc(C#N)c4)cc3C(=O)N2C)O1,19.5 µM
16,CCOc1ccc(-c2nc(CN(c3ccc(OC)cc3)S(=O)(=O)c3ccccc3)c(C)o2)cc1,21.1 µM
17,CCc1cnc(N2[C@H](C#N)[C@H](c3ccc(C#Cc4ccccc4F)cc3)[C@@H]2CO)s1,19.4 µM
18,Cc1nc(-c2cccc(-c3noc(C(=O)NCCCN4CCC(C)CC4)n3)c2)cs1,> 39 µM (inactive)
19,CCC[C@@]1(CCc2ccccc2)CC(=O)C([C@H](CC)c2cccc(NS(=O)(=O)c3ccc(C(F)(F)F)cn3)c2)C(=O)O1 (stereo partly specified),17.3 µM
20,O=C(NC1CCCC1)N1CCCCN2[C@H](CO)[C@@H](c3ccc(-c4cccnc4)cc3)[C@H]2C1,> 39 µM (inactive)
21,OC[C@H]1[C@@H](c2ccc(C#Cc3ccccc3F)cc2)[C@@H]2CN(CC3CCOCC3)CCCCN12,15.9 µM
22,C[C@@H]1CN([C@H](C)CO)C(=O)Cc2cc(NC(=O)C3CCCCC3)ccc2O[C@H]1CN(C)Cc1ccc(Cl)c(Cl)c1,17.4 µM
23,Cc1cccc(-c2ccc([C@@H]3[C@H](CO)N4CCCCN(S(=O)(=O)c5ccccc5F)C[C@@H]34)cc2)c1,16.6 µM and 10.7 µM

row,Compound,AC50
1,COc1ccc(Cc2nnc(NC(=O)CC(C)C)s2)cc1,11.3 µM
2,COc1cccc(-c2ccc3c(c2)[C@@H]2[C@@H](CCN2S(=O)(=O)c2ccccc2F)[C@@H](CO)N3)c1,25.4 µM
3,Cc1nc(OCC(=O)Nc2c(C)cccc2C)c2ccccc2n1,28.8 µM
4,O=C(NCCc1csc(-c2ccccc2)n1)[C@H]1CCCN1C(=O)CCc1ccccc1,> 39 µM (inactive)
5,CN1c2ccc(-c3ccc(C#N)cc3)cc2[C@@H]2[C@@H](CCN2S(=O)(=O)c2ccc(F)cc2)[C@@H]1CO,15.8 µM
6,O=C(CC1N=C2c3ccccc3N=C(SCc3ccc(F)cc3)N2C1=O)NCc1ccco1 (stereo unspecified),20.5 µM
7,COc1ccc(S(=O)(=O)N(Cc2nc(-c3cccc(C)c3)oc2C)c2ccccc2OC)cc1,6 µM
8,NC(N)=N/N=C/c1c(Cl)cccc1Cl,19.7 µM
9,Cn1c2ccccc2c2c1cc(C(=O)N1CCN(c3ccncc3)CC1)n2S(C)(=O)=O,26.6 µM
10,COc1cc(NC(=O)Nc2ccc(-c3nc(-c4cc(C)ccc4C)co3)cc2)cc(OC)c1,9.46 µM
11,COc1ccccc1C(=O)Nc1ccc(-c2nc(-c3ccc(C)cc3C)co2)cc1,9.34 µM and 18.2 µM
12,Cc1cccc(-c2nc(CSc3nc4c(c(=O)[nH]3)CN(Cc3ccccc3)CC4)c(C)o2)c1,> 39 µM (inactive)
13,COc1cccc(NC(=O)Nc2ccc(-c3nc(-c4ccc(C)cc4C)co3)cc2)c1,> 39 µM (inactive)
14,O=C(CC1N=C2c3ccccc3N=C(SCc3ccccc3Cl)N2C1=O)NCCc1ccccc1 (stereo unspecified),15.9 µM
15,CC(C)C#Cc1ccc([C@@H]2[C@@H](CO)N3C(=O)CN(S(=O)(=O)c4ccccc4)C[C@H]23)cc1,19.2 µM
16,CCCC#Cc1ccc([C@@H]2[C@H]3CN(C(=O)Nc4cccc(F)c4)CC(=O)N3[C@H]2CO)cc1,17.4 µM
17,O=C(C(=O)N1CCN(c2ncnc3c2nnn3Cc2ccccc2)CC1)c1c[nH]c2ccccc12,13.5 µM
18,CN(C)C1CCN(Cc2cccc(C#N)c2)C(C(=O)O)C1 (stereo unspecified),9.32 µM
19,Cc1nc(OCC(=O)Nc2ccc(Br)cc2F)c2ccccc2n1,21 µM
20,Cc1ccccc1S(=O)(=O)N1CCC(C(=O)NCCc2csc(-c3ccccc3)n2)CC1,25.6 µM
21,COc1ccc(CNC(=O)CC2N=C3c4ccccc4N=C(SCc4ccc(C)cc4)N3C2=O)cc1 (stereo unspecified),19.4 µM
22,Cc1ccc(-c2cc(O)c3c(c2)CN(C(=O)CCN2CCCO2)CCO3)s1,13.5 µM
23,CC(C)CC#Cc1ccc([C@@H]2[C@@H](CO)N3C(=O)CN(C(=O)c4cccc(F)c4)C[C@@H]23)cc1,15 µM and 9.46 µM

row,Compound,AC50
1,COc1cccc(NC(=O)N2CC(=O)N3[C@H](C2)[C@@H](c2ccc(C#CCC4CCCC4)cc2)[C@@H]3CO)c1,17 µM and 3.35 µM
2,Clc1ccc(-c2nc(NCc3ccc4c(c3)OCO4)c3ccccc3n2)cc1,11.3 µM
3,CN(C)C(=O)c1ccc(-c2ccc(C3[C@@H]4CN(Cc5ccc6c(c5)OCO6)C[C@H]3N4)cc2)cc1 (stereo partly specified),17.3 µM
4,Cc1ccc(C(=O)Nc2c(C(=O)NCc3cccnc3)[nH]c3ccccc23)cc1,> 39 µM (inactive)
5,COc1ccccc1CNC(=O)CCC1N=C2c3ccccc3N=C(SCc3cccc(F)c3)N2C1=O (stereo unspecified),> 39 µM (inactive)
6,Cc1ccc(-c2coc(-c3ccc(NS(=O)(=O)c4ccc(F)c(Cl)c4)cc3)n2)c(C)c1,24.7 µM
7,COc1ccc(-c2nc(Nc3ccc(OC)cc3OC)c3ccccc3n2)cc1,13.3 µM
8,Cc1cc(C2CCCN2C(=O)Cn2nc(C(F)(F)F)c3c2CCCC3)no1 (stereo unspecified),34.3 µM
9,C[C@@H]1CN(Cc2ccc(F)cc2)CCN1C(=O)COc1ccc(Cl)cc1NC(N)=O,> 39 µM (inactive)
10,Cc1oc(-c2ccccc2)nc1CSc1nc2c(c(=O)[nH]1)CN(Cc1ccccc1)CC2,15.4 µM
11,Cc1ccc(NC(=O)N2CCN(Cc3nc(-c4cccc(Cl)c4)oc3C)CC2)c(Cl)c1,34.2 µM
12,COc1ccc(-c2nc(NCC3CCN(Cc4ccc(C)cc4)C3)c3ccccc3n2)cc1 (stereo unspecified),13.5 µM
13,N#Cc1cccc(-c2ccc(C3[C@@H]4CN(C(=O)Nc5ccc(C(F)(F)F)cc5)C[C@H]3N4)cc2)c1 (stereo partly specified),5.28 µM
14,COc1ccc(-c2ccc3nc(CO)[nH]c3c2)cc1Cl,16.2 µM
15,O=S(=O)(c1ccc(Cl)s1)N1CCC2(CC1)NCCN=C2NCc1ccccc1F,17.9 µM
16,OC[C@H]1[C@H](c2ccc(C#Cc3ccccc3F)cc2)[C@@H]2CN(CC3CCOCC3)CCCCN12,9.56 µM
17,Cc1ccc(S(=O)(=O)N2CCC3(CC2)NCCN=C3NCc2ccc(Cl)cc2)cc1C,8.04 µM
18,CC(C)c1cccc(NC(=O)C[C@H]2CC[C@H]3[C@@H](COc4ccc(NS(=O)(=O)c5ccccc5Cl)cc4C(=O)N3C)O2)c1,22.6 µM
19,COc1ccc(-c2nc(N3CCC4(CC3)OCCO4)c3ccccc3n2)cc1,20.1 µM
20,COc1ccc(-c2nc(N3CCOCC3)c3ccccc3n2)cc1,36.1 µM
21,Fc1ccc(CSc2nc(NCc3ccc(Cl)cc3)c3ccccc3n2)cc1,16 µM
22,Cc1cccc(OCC(=O)N2CCC3(CC2)Nc2ccc(Cl)cc2-n2cccc23)c1,8.26 µM and 14.9 µM
23,CCN1CCCC1CNC(=O)C1CCN(Cc2cc3ccccc3n2Cc2ccccc2Cl)CC1 (stereo unspecified),28.7 µM

row,Compound,AC50
1,O=C(c1ccc(F)cc1)N1CC(=O)N2[C@@H](CO)[C@H](c3ccc(C#CCC4CCCC4)cc3)[C@@H]2C1,17.9 µM and 10.9 µM
2,Cc1cccc(CNC2=NCCNC23CCN(S(=O)(=O)c2cc(C)c(C)cc2C)CC3)c1,5.49 µM
3,O=C(NCCc1csc(-c2ccccc2)n1)C1CCN(C(=O)c2ccc(F)c(Cl)c2)CC1,5.61 µM
4,COc1ccc(-c2nc(N(C)Cc3ccco3)c3ccccc3n2)cc1,17 µM
5,CCc1cnc(N2[C@@H](C#N)[C@@H](c3ccc(C#Cc4ccccc4F)cc3)[C@@H]2CO)s1,17.2 µM
6,Cc1ccc(NC(=O)N2CCN(Cc3nc(-c4cccc(Cl)c4)oc3C)CC2)cc1F,7.24 µM
7,COc1ccc(OC)c(S(=O)(=O)N2CCc3c([nH]c4ccccc34)C2c2cccc(F)c2)c1 (stereo unspecified),> 39 µM (inactive)
8,CC1CCCCN1CCNc1nc(-c2ccc(Cl)cc2)nc2ccccc12 (stereo unspecified),10.9 µM and 12.7 µM
9,CCN(CC)CCO[C@H]1CC[C@@]2(C)C(=CC[C@@H]3[C@@H]2CC[C@]2(C)C(=O)CC[C@@H]32)C1,12 µM
10,COc1ccc(-c2nc(N3CCC(N4CCCCC4)CC3)c3ccccc3n2)cc1,10.6 µM
11,COc1ccccc1-c1nc(C)c(-c2ccc(SCc3c(F)cccc3Cl)nn2)s1,38.4 µM
12,COc1ccccc1-c1nc(Cn2nnc(-c3nc(-c4ccc(C)cc4)no3)c2C)c(C)o1,> 20 µM (inactive)
13,O=C(NCCc1csc(-c2ccccc2)n1)C1CCN(C(=O)c2ccccc2Br)CC1,24.6 µM
14,COc1ccccc1C(=O)N1CCC2(CC1)Nc1cc(F)ccc1-n1cccc12,> 39 µM (inactive)
15,Cc1ccc2c(c1C)-n1cccc1C1(CCN(C(=O)c3ccccc3Br)CC1)N2,17.7 µM
16,O=C(Nc1cccc(F)c1)N1CCCCN2[C@@H](CO)[C@@H](c3ccc(C#Cc4cccnc4)cc3)[C@@H]2C1,> 42 µM (inactive)
17,O=C(NCc1cccnc1)C1CCN(Cc2cc3ccccc3n2Cc2ccc(F)cc2)CC1,38.3 µM
18,Cc1cccc(-c2nc(CN(c3ccccc3)S(=O)(=O)c3ccccc3)c(C)o2)c1,5.9 µM and 16.3 µM
19,Fc1ccccc1CSc1nc(NCc2ccc(Cl)cc2)c2ccccc2n1,17.4 µM
20,COc1cccc(NC(=O)N2CC(=O)N3[C@H](CO)[C@@H](c4ccc(C#CCC5CCCC5)cc4)[C@H]3C2)c1,> 39 µM (inactive)
21,CCCCNC(=O)CCC1N=C2c3ccccc3N=C(SCc3ccc(F)cc3)N2C1=O (stereo unspecified),24.8 µM
22,Fc1ccccc1CSc1nc(Nc2ccc3c(c2)OCO3)c2ccccc2n1,33.2 µM
